Activity calls are given as the source filed them. No cut-off for these calls is given here.
Assays:
[1] = Inhibition of pig skin-derived LOX using cadaverine hydrochloride as substrate preincubated for 1 hr followed by substrate addition by ROS-Glo assay; parameters: species or system Sus scrofa
[2] = Stability in CD1 mouse liver microsomes assessed as parent compound remaining at 10 uM measured after 30 mins by LC-MS/MS analysis; type: ADME, Microsome; settings: read-out: Stability
[3] = Stability in Sprague-Dawley rat liver microsomes assessed as parent compound remaining at 10 uM measured after 30 mins by LC-MS/MS analysis; type: ADME, Microsome; settings: read-out: Stability
Mus musculus = assay: Antitumor activity against MMTV-PyMT mouse breast cancer model assessed as reduction in tumor growth at 70 mg/kg, po administered once daily via gavage for 34 days measured twice a week during compound dosing; type: functional, organism-based
[4] = Toxicity in MMTV-PyMT mouse breast cancer model assessed as change in body weight at 70 mg/kg, po administered once daily via gavage for 34 days; type: organism-based; settings: in vivo, 816 h
[5] = Toxicity in MMTV-PyMT mouse breast cancer model assessed as death at 70 mg/kg, po administered once daily via gavage for 34 days; type: organism-based; settings: in vivo, 816 h
[6] = target: T1, Lysyl oxidase homolog 2 (Homo sapiens) (UniProt Q9Y4K0); assay: Reversible inhibition of human C-terminal His10-tagged LOXL2 (Met1 to Gln774 residues) expressed in mouse NS0 cells assessed as enzyme residual activity at 10 times IC50 using cadaverine hydrochloride as substrate preincubated for 1 hr followed by 100-fold enzyme-compound mixture dilution in …; type: cell-based
T1 sequence (whole entry): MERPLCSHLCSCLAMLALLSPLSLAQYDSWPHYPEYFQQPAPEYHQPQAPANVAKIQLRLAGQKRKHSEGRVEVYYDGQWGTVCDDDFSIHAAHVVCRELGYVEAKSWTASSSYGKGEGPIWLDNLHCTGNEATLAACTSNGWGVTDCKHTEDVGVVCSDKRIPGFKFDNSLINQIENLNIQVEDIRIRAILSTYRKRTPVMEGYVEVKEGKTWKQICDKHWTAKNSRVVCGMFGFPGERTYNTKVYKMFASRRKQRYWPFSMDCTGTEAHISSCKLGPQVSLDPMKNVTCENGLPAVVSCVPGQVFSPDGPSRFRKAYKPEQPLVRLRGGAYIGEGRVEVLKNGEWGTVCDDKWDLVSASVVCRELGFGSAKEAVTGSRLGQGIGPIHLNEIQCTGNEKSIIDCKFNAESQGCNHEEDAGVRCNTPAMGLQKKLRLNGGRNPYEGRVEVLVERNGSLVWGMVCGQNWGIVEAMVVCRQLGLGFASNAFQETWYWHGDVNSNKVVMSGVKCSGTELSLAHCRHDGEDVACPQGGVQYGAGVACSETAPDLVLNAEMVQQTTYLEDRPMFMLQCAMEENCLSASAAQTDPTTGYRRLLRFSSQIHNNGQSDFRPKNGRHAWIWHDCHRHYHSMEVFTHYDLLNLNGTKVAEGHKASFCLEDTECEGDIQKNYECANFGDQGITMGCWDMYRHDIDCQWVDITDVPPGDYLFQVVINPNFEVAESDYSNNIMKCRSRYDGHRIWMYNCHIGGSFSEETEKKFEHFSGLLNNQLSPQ

Cn1cc(-c2cc(S(C)(=O)=O)cc(S(=O)(=O)c3cnc(CN)s3)c2)cn1
IC50 [1]: 2.65 to 3.42 µM

CS(=O)(=O)c1cc(-c2ccccc2)cc(S(=O)(=O)c2csc(CN)n2)c1
IC50 [1]: > 100 µM

Cn1cc(-c2cc(S(C)(=O)=O)cc(S(=O)(=O)c3csc(CN)n3)c2)cn1
IC50 [1]: > 100 µM

CCc1cc(-c2cnn(C)c2)cc(S(=O)(=O)c2cnc(CN)s2)c1
remaining at 0.5 h, 10 µM [2]: 76% | remaining at 0.5 h, 10 µM [3]: 82% | Activity (Mus musculus): Active | Activity [4]: Non-Toxic | Activity [5]: Non-Toxic | Activity [6]: 30%

CS(=O)(=O)c1cc(Sc2cnc(CN)s2)cc(-c2ccccc2)c1
IC50 [1]: 1.13 to 1.31 µM

CS(=O)(=O)c1cc(-c2ccccc2)cc(S(=O)(=O)c2ccc(CN)s2)c1
remaining at 0.5 h, 10 µM [2]: 64% | Activity [6]: 80%

CS(=O)(=O)c1cc(-c2ccccc2)cc(-c2cnc(CN)s2)c1
IC50 [1]: 46.5 to 52 µM

From ChEMBL document CHEMBL4402523, “2-Aminomethylene-5-sulfonylthiazole Inhibitors of Lysyl Oxidase (LOX) and LOXL2 Show Significant Efficacy in Delaying Tumor Growth” (J Med Chem, 2020)
